Results from PMC8566451, “Lead optimization of novel quinolone chalcone compounds by a structure–activity relationship (SAR) study to increase efficacy and metabolic stability” (Scientific Reports, 2021).

What was measured:
[1] = tested on: HeLa; assay: Sulforhodamine B (SRB) assay; format: cell-based; details: Homo sapiens; for IC50: HeLa, Supplementary Table S1, SRB; for GI50: HeLa cervical cancer cells, 48 h, SRB
Procedure: (§1) The human MDA-MB-231, MCF7, MDA-MB-468, RPMI-8226 and HeLa cell lines were purchased from ATCC and maintained in Dulbecco's Modified Eagle Medium (DMEM)—high glucose supplemented with 10% fetal bovine serum (FBS) and antibiotics/antimycotics. Cell line authentication was carried out by Genetica DNA Laboratories (Burlington, NC) using a short tandem repeat (STR) profiling method (March 2015; July 2015; September 2016). Melanoma cells E-055 (MZ-Mel-3), E-097 (Mel-SOE), E-112 (UKRV-Mel-38), E-157 (UKRV-Mel-17) were obtained from the European Searchable Tumour Line Database (ESTDAB) cell bank (a kind gift of Dr. Graham Pawelec, Tubingen University, Germany). MDA-MB-435 was purchased from the Division of Cancer Treatment and Diagnosis Tumor Repository. All melanoma cells were cultured in Roswell Park Memorial Institute (RPMI) medium supplemented with 10% FBS and P/S/antimycotics. Primary human epidermal melanocytes from normal adult abdominal skin were purchased from ATCC (cat # PCS-200–013) and Cell Applications (cat#104-05a). The melanocytes were cultured in the media supplied by the companies.
(§2) The SRB assay was used to assess drug-induced cytotoxicity and cell proliferation as previously described[2],[33],[34] with a few modifications. Briefly, cells were plated 10,000 to 25,000 cells/cm^2 in 96-well plates (100 µl medium) and allowed to adhere overnight. The cell counts were different for each cell line to ensure optimal cell growth for the duration of the assay. Eight different concentrations of compound solutions using 2–4 times serial dilutions (100 µl). Cells were then incubated for an additional 48 h and then fixed with 100 µl ice-cold 10% (w/v) trichloroacetic acid (TCA) (without removing the cell medium, final concentration, 3.3% of TCA) and stained with 0.4% SRB (w/v) in 1% acetic acid (v/v). The relative growth rate (%) was calculated for each of the compound concentrations according to the following formula: 100 * (T − T0)/(C − T0), in which T is the optical density (OD) after exposure to a certain concentration of the compound after 48 h, T0 is the OD at the start of drug exposure (time zero) and C is the control growth. The GI50 for each compound was obtained from a non-linear sigmoidal dose–response (variable slope) curve fitted by GraphPad Prism v.4.03 software.

[2] = tested on: MCF7; assay: Sulforhodamine B (SRB) assay; format: cell-based; details: Homo sapiens; for IC50: MCF7, Supplementary Table S1, SRB; for GI50: MCF7 breast cancer cells, 48 h, SRB
Procedure: as §1, §2

[3] = tested on: MDA-MB231; assay: Sulforhodamine B (SRB) assay; format: cell-based; details: Homo sapiens, MDA-MB-231; for IC50: Supplementary Table S1, SRB; for GI50: MDA-MB231 breast cancer cells, 48 h, SRB
Procedure: as §1, §2

[4] = tested on: RPMI-8226; assay: Sulforhodamine B (SRB) assay; format: cell-based; details: Homo sapiens, Supplementary Table S1, SRB
Procedure: as §1, §2

[5] = tested on: MDA-MB435; assay: Sulforhodamine B (SRB) assay; format: cell-based; details: Homo sapiens, MDA-MB-435, MDA-MB435 cells, 48 h
Procedure: as §1, §2

[6] = tested on: MDA-MB468; assay: Sulforhodamine B (SRB) assay; format: cell-based; details: Homo sapiens, MDA-MB-468, MDA-MB468 breast cancer cells, 48 h
Procedure: as §1, §2

[7] = tested on: MZ-Mel-3; assay: Sulforhodamine B (SRB) assay; format: cell-based; details: MZ-Mel-3 melanoma cells, 48 h
Procedure: as §1, §2

[8] = tested on: Mel-SOE; assay: Sulforhodamine B (SRB) assay; format: cell-based; details: Mel-SOE melanoma cells, 48 h
Procedure: as §1, §2

[9] = tested on: UKRV-Mel-17; assay: Sulforhodamine B (SRB) assay; format: cell-based; details: UKRV-Mel-17 melanoma cells, 48 h
Procedure: as §1, §2

[10] = tested on: UKRV-Mel-38; assay: Sulforhodamine B (SRB) assay; format: cell-based; details: UKRV-Mel-38 melanoma cells, 48 h
Procedure: as §1, §2

[11] = tested on: MDA-MB231-TaxR; assay: Sulforhodamine B (SRB) assay; format: cell-based; details: Homo sapiens, MDA-MB231-TaxR paclitaxel-resistant breast cancer cells, 48 h
Source text: We had initially determined that quinolone chalcones were promising anti-proliferative through a first round screening and identified CTR-17 and CTR-20 as favorable structures for anticancer activity. […] We carried out a comparative SAR study to determine if we could further optimize the quinolone chalcone to maximize efficacy. The Sulforhodamine B (SRB) assay was used to measure the anti-proliferative/cell killing activities of CTRs, for which several different cell lines were use: the cervical cancer HeLa, the breast cancer cell lines MDA-MB231, MDA-MB468, MDA-MB231TaxR (an induced paclitaxel-resistant sub-cell line of the MDA-MB231[9]) and MCF7. In addition, a subset was tested against the melanoma cell lines MZ-MEL-3.1, Mel-SOE, UKRV-Mel-38, UKRV-Mel-17 and MDA-MB-435 (Table 1, Supplemental Table S1).
as §2

[12] = biological target: T1, porcine tubulin (Sus scrofa, UniProt P02550+P02554); assay: In vitro tubulin polymerization assay; format: biochemical; details: 3 µM compound, 20 µM porcine tubulin, 37 °C, 60 min
T1 construct: purchased Cytoskeleton Inc., Denver, CO BK011P
T1 sequence (P02554 whole entry): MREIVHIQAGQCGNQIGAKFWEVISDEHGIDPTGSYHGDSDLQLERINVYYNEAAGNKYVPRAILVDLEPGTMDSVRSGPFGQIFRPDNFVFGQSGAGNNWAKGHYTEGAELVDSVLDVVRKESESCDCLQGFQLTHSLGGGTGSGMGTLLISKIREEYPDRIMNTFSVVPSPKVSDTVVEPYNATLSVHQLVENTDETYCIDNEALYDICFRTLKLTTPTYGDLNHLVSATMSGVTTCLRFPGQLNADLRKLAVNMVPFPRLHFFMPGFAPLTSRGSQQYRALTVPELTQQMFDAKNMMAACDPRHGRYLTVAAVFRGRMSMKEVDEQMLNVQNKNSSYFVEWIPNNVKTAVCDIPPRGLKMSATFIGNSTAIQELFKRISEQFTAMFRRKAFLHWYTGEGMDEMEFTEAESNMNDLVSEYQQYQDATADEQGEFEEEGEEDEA
T1 sequence (P02550 whole entry): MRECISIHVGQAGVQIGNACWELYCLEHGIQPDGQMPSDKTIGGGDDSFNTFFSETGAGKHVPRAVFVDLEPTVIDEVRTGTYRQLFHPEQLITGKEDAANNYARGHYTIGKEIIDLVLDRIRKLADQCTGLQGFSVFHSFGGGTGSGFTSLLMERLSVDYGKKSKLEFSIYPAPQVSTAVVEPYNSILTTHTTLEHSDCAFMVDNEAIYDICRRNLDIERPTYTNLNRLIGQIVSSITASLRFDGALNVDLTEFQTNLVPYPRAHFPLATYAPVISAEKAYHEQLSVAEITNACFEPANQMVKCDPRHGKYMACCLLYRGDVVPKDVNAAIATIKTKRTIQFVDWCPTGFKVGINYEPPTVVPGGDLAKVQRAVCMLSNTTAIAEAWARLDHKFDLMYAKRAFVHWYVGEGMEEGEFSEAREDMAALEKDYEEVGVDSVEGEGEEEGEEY
Procedure: Spontaneous polymerization of 20 µM porcine tubulin was initiated with the addition of 1 mmol/L GTP at 37 °C and monitored every minute for 60 min in the presence of the indicated concentration of CTR-21, CTR-32, nocodazole, paclitaxel, or a DMSO vehicle control. To make the graph simpler, only 3 µM concentration is shown. […] A modified Dixon plot was used to determine the inhibitory concentration of CTR-21 and CTR-32 (Ki).
Microtubule assembly was assessed using a Tubulin Polymerization assay kit (BK011P; Cytoskeleton Inc., Denver, CO). […] Polymerization was started by incubating at 37 °C and followed by absorbance readings every 1 min at 340 nm for 1 h using a Synergy H4 plate reader.

[13] = tested on: cancer cell lines (breast cancer, melanoma, cervical cancer); assay: SRB assay, average GI50 over cancer cell lines; format: cell-based; details: average over the cell lines of Table 1 or Supplemental Table S1; read-out: average GI50
Procedure: as §2

Compound	IC50 [1]	IC50 [2]	IC50 [3]	IC50 [4]	GI50 [1]	GI50 [2]	GI50 [3]	GI50 [5]	GI50 [6]	GI50 [11]	GI50 [13]	GI50 [7]	GI50 [8]	GI50 [9]	GI50 [10]	effect on tubulin polymerization [12]
COc1cc(F)ccc1C(=O)/C=C/c1cc2ccccc2[nH]c1=O [CTR-30, (E)-3-(3-(4-fluoro-2-methoxyphenyl)-3-oxoprop-1-enyl)quinolin-2(1H)-one]	1500 ± 130 nM	1470 ± 150 nM	1420 ± 80 nM	200 ± 30 nM												
COc1ccc(C(=O)/C=C/c2cc3ccccc3[nH]c2=O)c(OC)c1 [CTR-27, (E)-3-(3-(2,4-dimethoxyphenyl)-3-oxoprop-1-enyl)quinolin-2(1H)-one]	1800 ± 270 nM	2200 ± 350 nM	2690 ± 240 nM	770 ± 100 nM												
COc1ccc(F)cc1C(=O)/C=C/c1cc2ccccc2[nH]c1=O [CTR-29, (E)-3-(3-(5-fluoro-2-methoxyphenyl)-3-oxoprop-1-enyl)quinolin-2(1H)-one]	90 ± 20 nM	100 ± 10 nM	210 ± 20 nM	70 ± 10 nM							118 nM					
COc1ccc(OC)c(C(=O)/C=C/c2cc3ccccc3[nH]c2=O)c1 [CTR-26, (E)-3-(3-(2,5-dimethoxyphenyl)-3-oxoprop-1-enyl)quinolin-2(1H)-one]	290 ± 20 nM	320 ± 10 nM	960 ± 150 nM	200 ± 30 nM							443 nM					
COc1ccccc1C(=O)/C=C/c1cc2cc(C)ccc2[nH]c1=O [CTR-18, (E)-3-(3-(2-methoxyphenyl)-3-oxoprop-1-enyl)-6-methylquinolin-2(1H)-one]					443 ± 112 nM	510 ± 38 nM	530 ± 119 nM	307 ± 7 nM	304 ± 2 nM	1210 ± 179 nM	499 nM	239 ± 13 nM	817 ± 34 nM	596 ± 162 nM	746 ± 177 nM	
COc1ccccc1C(=O)/C=C/c1cc2ccccc2[nH]c1=O [CTR-17, (E)-3-(3-(2-methoxyphenyl)-3-oxoprop-1-enyl)quinolin-2(1H)-one]					280 ± 78 nM	485 ± 97 nM	657 ± 72 nM	290 ± 66 nM	320 ± 26 nM	1300 ± 83 nM	464 nM	227 ± 30 nM	786 ± 52 nM	504 ± 33 nM	626 ± 154 nM	
COc1ccc2[nH]c(=O)c(/C=C/C(=O)c3ccccc3OC)cc2c1 [CTR-20, (E)-6-Methoxy-3-(3-(2-methoxyphenyl)-3-oxoprop-1-enyl) quinolin-2(1H)-one]					124 ± 36 nM	194 ± 21 nM	216 ± 21 nM	90 ± 10 nM	408 ± 12 nM	966 ± 163 nM	232 nM	98 ± 21 nM	338 ± 78 nM	283 ± 57 nM	338 ± 33 nM	
COc1cc2cc(/C=C/C(=O)c3ccccc3OC)c(=O)[nH]c2cc1OC [CTR-24, (E)-6,7-dimethoxy-3-(3-(2-methoxyphenyl)-3-oxoprop-1-enyl)quinolin-2(1H)-one]	1340 ± 200 nM	1540 ± 360 nM	2020 ± 10 nM	1040 ± 130 nM							1500 nM					
COc1cccc(OC)c1C(=O)/C=C/c1cc2ccccc2[nH]c1=O [CTR-25, (E)-3-(3-(2,6-dimethoxyphenyl)-3-oxoprop-1-enyl)quinolin-2(1H)-one]	1320 ± 20 nM	1690 ± 70 nM	2600 ± 180 nM	770 ± 210 nM							1600 nM					

The next lines start with results.

IC50 [1]	IC50 [2]	IC50 [3]	IC50 [4]	GI50 [1]	GI50 [2]	GI50 [3]	GI50 [5]	GI50 [6]	GI50 [11]	GI50 [13]	Compound	GI50 [7]	GI50 [8]	GI50 [9]	GI50 [10]	effect on tubulin polymerization [12]
140 ± 30 nM	320 ± 40 nM	390 ± 90 nM	100 ± 30 nM								COc1ccc2[nH]c(=O)c(/C=C/C(=O)c3cc(F)ccc3OC)cc2c1 [CTR-37, (E)-3-(3-(5-fluoro-2-methoxyphenyl)-3-oxoprop-1-enyl)-6-methoxyquinolin-2(1H)-one]					
				8 ± 1 nM	6 ± 1 nM	3 ± 1 nM	4 ± 1 nM	9 ± 3 nM	131 ± 35 nM		CC(=O)O[C@H]1C(=O)[C@@]2(C)[C@H]([C@H](OC(=O)c3ccccc3)[C@]3(O)C[C@H](OC(=O)[C@H](O)[C@@H](NC(=O)c4ccccc4)c4ccccc4)C(C)=C1C3(C)C)[C@]1(OC(C)=O)CO[C@@H]1C[C@@H]2O [Tax, paclitaxel, reference compound]	58 ± 15 nM	60 ± 16 nM	14 ± 4 nM	6 ± 1 nM	shorter nucleation phase, steeper growth phase, and reaches steady state quicker
40 nM	90 ± 10 nM	130 ± 20 nM	50 ± 20 nM	19 ± 1 nM	41 ± 5 nM	30 ± 4 nM	23 nM	77 ± 13 nM	54 ± 13 nM	36 nM	CCOc1ccccc1C(=O)/C=C/c1cc2cc(OC)ccc2[nH]c1=O [CTR-40, (E)-3-(3-(2-ethoxyphenyl)-3-oxoprop-1-enyl)-6-methoxyquinolin-2(1H)-one]	11 nM	53 ± 4 nM	28 ± 5 nM	42 ± 11 nM	
640 ± 30 nM	850 ± 60 nM	840 ± 80 nM	260 ± 20 nM							648 nM	COc1ccc(OC)c(C(=O)/C=C/c2cc3cc(OC)ccc3[nH]c2=O)c1 [CTR-34, (E)-3-(3-(2,5-dimethoxyphenyl)-3-oxoprop-1-enyl)-6-methoxyquinolin-2(1H)-one]					
2070 ± 250 nM	2120 ± 360 nM	2350 ± 260 nM	1320 ± 100 nM							2000 nM	COc1ccc(C(=O)/C=C/c2cc3cc(OC)ccc3[nH]c2=O)c(OC)c1 [CTR-35, (E)-3-(3-(2,4-dimethoxyphenyl)-3-oxoprop-1-enyl)-6-methoxyquinolin-2(1H)-one]					
1110 ± 130 nM	1230 ± 80 nM	730 ± 60 nM	150 ± 20 nM							805 nM	COc1ccc2[nH]c(=O)c(/C=C/C(=O)c3ccc(OC(F)(F)F)cc3OC)cc2c1 [CTR-36, (E)-6-methoxy-3-(3-(2-methoxy-4-(trifluoromethoxy)phenyl)-3-oxoprop-1-enyl)quinolin-(1H)-one]					
60 ± 10 nM	140 ± 20 nM	150 ± 10 nM	40 ± 10 nM							98 nM	COc1ccc2[nH]c(=O)c(/C=C/C(=O)c3ccc(F)cc3OC)cc2c1 [CTR-38, (E)-3-(3-(4-fluoro-2-methoxyphenyl)-3-oxoprop-1-enyl)-6-methoxyquinolin-2(1H)-one]					
